Where two headings read alike, the source gives them in different places.
Tested on: test plant species
Assay: Post-emergent herbicidal activity test (greenhouse, foliar spray, visual growth reduction)
Assay type: in vivo
Conditions: post-emergence, 336 h, 140 g ai/ha
How it was run: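 Scoring used a 0 to 100 percent visual scale of growth reduction against solvent-treated controls, read 14 d after spraying. Applications went onto plants at first or second true leaf stage, 187 L/ha, with crop oil concentrate and X-77 surfactant in the carrier. Post-treatment watering was by subirrigation to avoid wash-off.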

[1] = ECHCG: barnyardgrass (Echinochloa crus-galli), 14 days after application, read-out: Visual Growth Reduction (%) 14 Days After Application, ECHCG
[2] = IPOHE: ivy-leaf morning glory (Ipomoea hederacea), 14 days after application, read-out: Visual Growth Reduction (%) 14 Days After Application, IPOHE
[3] = KCHSC: kochia (Bassia scoparia), 14 days after application, read-out: Visual Growth Reduction (%) 14 Days After Application, KCHSC
[4] = ORYSA: rice (Oryza sativa), 14 days after application, read-out: Visual Growth Reduction (%) 14 Days After Application, ORYSA
[5] = SETFA: giant foxtail (Setaria faberi), 14 days after application, read-out: Visual Growth Reduction (%) 14 Days After Application, SETFA
[6] = SORVU: grain sorghum (Sorghum vulgare), 14 days after application, read-out: Visual Growth Reduction (%) 14 Days After Application, SORVU
[7] = STEME: common chickweed (Stellaria media), 14 days after application, read-out: Visual Growth Reduction (%) 14 Days After Application, STEME
[8] = TRZAS: wheat, spring (Triticum aestivum), 14 days after application, read-out: Visual Growth Reduction (%) 14 Days After Application, TRZAS
[9] = blackgrass (Alopecurus myosuroides), 14 Days After Application, read-out: Visual Growth Reduction (%) ALOMY
[10] = canada thistle (Cirsium arvense), 14 Days After Application, read-out: Visual Growth Reduction (%) CIRAR
[11] = crabgrass (Digitaria sanguinalis), 14 Days After Application, read-out: Visual Growth Reduction (%) DIGSA
[12] = lambsquarters (Chenopodium album), 14 Days After Application, read-out: Visual Growth Reduction (%) CHEAL
[13] = redroot pigweed (Amaranthus retroflexus), 14 Days After Application, read-out: Visual Growth Reduction (%) AMARE
[14] = wild oat (Avena fatua), 14 Days After Application, read-out: Visual Growth Reduction (%) AVEFA
[15] = yellow nutsedge (Cyperus esculentus), 14 Days After Application, read-out: Visual Growth Reduction (%) CYPES

Row | Structure (SMILES) | pest or weed control at 140 g/ha [1] | pest or weed control at 140 g/ha [2] | pest or weed control at 140 g/ha [3] | pest or weed control at 140 g/ha [4] | pest or weed control at 140 g/ha [5] | pest or weed control at 140 g/ha [6] | pest or weed control at 140 g/ha [7] | pest or weed control at 140 g/ha [8] | pest or weed control at 140 g/ha [9] | pest or weed control at 140 g/ha [10] | pest or weed control at 140 g/ha [11] | pest or weed control at 140 g/ha [12] | pest or weed control at 140 g/ha [13] | pest or weed control at 140 g/ha [14] | pest or weed control at 140 g/ha [15]
1 | O=C(O)c1nc(-c2cnc(C(F)(F)F)cc2Cl)ccc1Cl [F205, 4′,5-Dichloro-6′-(trifluoromethyl)-[2,3′-bipyridine]-6-carboxylic acid] | 45 to 59% | 95 to 100% | 0 to 29% | 0 to 29% | 75 to 84% | 75 to 84% | 0 to 29% | 0 to 29% | 0 to 29% | 75 to 84% | 45 to 59% | 75 to 84% | 30 to 44% | 0 to 29% | 0 to 29%
2 | COC(=O)c1nc(-c2c(Cl)cc(C(F)(F)F)cc2[N+](=O)[O-])ccc1Cl [F206, Methyl 3-chloro-6-(2-chloro-6-nitro-4-(trifluoromethyl)phenyl)picolinate] | 0 to 29% | 95 to 100% | 30 to 44% | 75 to 84% | 75 to 84% | 75 to 84% | 0 to 29% | 0 to 29% | 0 to 29% | 30 to 44% | 45 to 59% | 30 to 44% | 45 to 59% | 0 to 29% | 0 to 29%
3 | Cc1cnc(-c2ccc(Cl)c(C(=O)O)n2)c(F)c1 [F208, 5-Chloro-3′-fluoro-5′-methyl-[2,2′-bipyridine]-6-carboxylic acid] | 0 to 29% | 0 to 29% | 0 to 29% | 0 to 29% | 0 to 29% | 0 to 29% | 0 to 29% | 0 to 29% | 0 to 29% | 0 to 29% | 0 to 29% | 85 to 94% | 0 to 29% | 0 to 29% | 0 to 29%
4 | COC(=O)c1nc(-c2ccc(C(F)F)cc2)c(F)cc1Cl [F209, Methyl 3-chloro-6-(4-(difluoromethyl)phenyl)-5-fluoropicolinate] | 0 to 29% | 85 to 94% | 0 to 29% | 0 to 29% | 0 to 29% | 0 to 29% | 0 to 29% | 0 to 29% | 0 to 29% | 60 to 74% | 0 to 29% | 85 to 94% | 45 to 59% | 0 to 29% | 0 to 29%
5 | COC(=O)c1nc(-c2ccc(OC(F)(F)F)cc2Cl)c(F)cc1Cl [F210, Methyl 3-chloro-6-(2-chloro-4-(trifluoromethoxy)phenyl)-5-fluoropicolinate] | 60 to 74% | 95 to 100% | 75 to 84% | 0 to 29% | 85 to 94% | 95 to 100% | 0 to 29% | 45 to 59% | 45 to 59% | 85 to 94% | 85 to 94% | 85 to 94% | 95 to 100% | 60 to 74% | 0 to 29%
6 | COC(=O)c1nc(-c2cc(N)c(C(F)(F)F)cc2Cl)ccc1Cl [F211, methyl 6-(5-amino-2-chloro-4-(trifluoromethyl)phenyl)-3-chloropicolinate] | 60 to 74% | 95 to 100% | 75 to 84% | 0 to 29% | 45 to 59% | 60 to 74% | 0 to 29% | 0 to 29% | 0 to 29% | 85 to 94% | 30 to 44% | 95 to 100% | 85 to 94% | 0 to 29% | 0 to 29%
7 | COC(=O)c1nc(-c2ccc(C(F)(F)F)c(N)c2Cl)ccc1Cl [F212, Methyl 6-(3-amino-2-chloro-4-(trifluoromethyl)phenyl)-3-chloropicolinate] | 75 to 84% | 95 to 100% | 60 to 74% | 0 to 29% | 60 to 74% | 60 to 74% | 0 to 29% | 0 to 29% | 0 to 29% | 85 to 94% | 30 to 44% | 95 to 100% | 60 to 74% | 0 to 29% | 0 to 29%
8 | COC(=O)c1nc(-c2c(N)cc(C(F)(F)F)cc2Cl)ccc1Cl [F213, Methyl 6-(2-amino-6-chloro-4-(trifluoromethyl)phenyl)-3-chloropicolinate] | 0 to 29% | 95 to 100% | 60 to 74% | 0 to 29% | 30 to 44% | 60 to 74% | 0 to 29% | 0 to 29% | 0 to 29% | 0 to 29% | 30 to 44% | 85 to 94% | 45 to 59% | 0 to 29% | 0 to 29%
9 | COC(=O)c1nc(-c2c(Cl)cc(C(F)(F)F)cc2I)ccc1Cl [F214, methyl 3-chloro-6-(2-chloro-6-iodo-4-(trifluoromethyl)phenyl)picolinate] | 0 to 29% | 95 to 100% | 75 to 84% | 0 to 29% | 75 to 84% | 85 to 94% | 30 to 44% | 75 to 84% | 45 to 59% | 85 to 94% | 95 to 100% | 95 to 100% | 75 to 84% | 60 to 74% | 0 to 29%
10 | COC(=O)c1nc(-c2ccc(OC(F)(F)F)cc2OC)c(F)cc1Cl [F215, Methyl 3-chloro-5-fluoro-6-(2-methoxy-4-(trifluoromethoxy)phenyl)picolinate] | 85 to 94% | 95 to 100% | 75 to 84% | 0 to 29% | 95 to 100% | 95 to 100% | 30 to 44% | 45 to 59% | 0 to 29% | 85 to 94% | 45 to 59% | 85 to 94% | 85 to 94% | 60 to 74% | 0 to 29%
